Test results published in publication PMC10304876 (Molecules, 2023).
“Also recorded” adds a separate entry of the source.

Columns and labels:
[1] = tested on: squirrel monkeys (Saimiri sciureus); assay: Warm-water tail withdrawal in squirrel monkeys; assay type: in vivo; settings: 52 °C water, cumulative dosing, n = 3 to 5
Experimental: Male squirrel monkeys (Saimiri sciureus) were housed in a climate-controlled vivarium with a 12 h light/dark cycle (7 a.m.–7 p.m.) in the McLean Hospital Animal Care Facility (licensed by the U.S. Department of Agriculture and compliant with guidelines provided by the Committee on Care and Use of Laboratory Animals of the Institute of Laboratory Animals Resources, Commission on Life Sciences, National Research Council; 2011). These experiments were approved under IACUC protocol #2015N000165.
Tail withdrawal latencies were assessed as described previously. Briefly, monkeys were seated in customized Plexiglas chairs that allowed their tails to hang freely. Tail withdrawal latencies were measured by immersing the subject’s tail in water held at 35 °C or 52 °C (temperatures were presented in a randomized order during successive test components). After obtaining a baseline tail withdrawal latency, complete dose response curves were generated in each subject using standard cumulative dosing procedures. Briefly, every 15 min after an injection, tail withdrawal latencies at each temperature were redetermined and subjects were injected with the next dose, such that the total (cumulative) dose was increased by ½ log10 units in each successive cycle. This procedure was repeated until either (a) the tail withdrawal latency from 52 °C water reached the maximum allowable latency (10 s), or (b) tail withdrawal latency no longer increased with increases in dose of the test drug.
(§1) All statistical analyses and graphic representations were completed with GraphPad Prism version 9.3.0 (GraphPad Software, San Diego, CA, USA) using log-transformed values of doses. Group means ± SEM tail withdrawal latencies (in sec) and minute volume ratios are plotted as a function of drug dose. Data were analyzed using one-way ANOVA with significance set at p < 0.05, followed by Dunnett’s multiple comparison test.

[2] = target: T1, human δ-opioid receptor (OPRD1) (Homo sapiens, UniProt P41143); assay: Forskolin-induced cAMP accumulation assay, DOR agonist; settings: for Emax: read-out: DOR Agonist %Emax ± SEM, cAMP assay
[3] = target: T2, human µ-opioid receptor β-arrestin2 (Homo sapiens, UniProt P35372); assay: cell-based; settings: for Emax: read-out: MOR β-Arrestin Recruitment %Emax ± SEM
T2 construct: EFC (enzyme fragment complementation) fragment; host or cells: PathHunter CHO-K1

[4] = tested on: squirrel monkeys (Saimiri sciureus); assay: Squirrel monkey ventilation (whole-body plethysmograph, air vs 5% CO2); assay type: in vivo; settings: for respiratory depressant effects (ventilatory ratio: minute volumes in 5% CO2 vs room air): cumulative dosing, result in words
Experimental: These experiments were approved under IACUC protocol #2015N000165.
Ventilation measures were assessed as described previously. Briefly, squirrel monkeys were acclimated to a customized acrylic chamber (10′′d × 10′′w × 10′′h) that served as a whole-body plethysmograph (EMKA Technologies, Montreal, PQ, Canada). Gas (either air or a 5% CO2 in air mixture) was introduced to and extracted from the chamber at a constant flow rate of 5 L/min. Experimental sessions consisted of 4–6 consecutive 30 min cycles, each comprising a 20 min exposure to air followed by a 10 min exposure to 5% CO2. Drug effects were determined using cumulative dosing procedures, and injections were administered following each exposure to 5% CO2. Respiratory rate and tidal volume (mL/breath) were recorded over 1 min periods and were multiplied to provide minute volumes. Data from the last three minutes of each exposure to air or CO2 were averaged and used for analysis of drug effects on ventilation.
as §1

[5] = target: T1, human δ-opioid receptor (OPRD1); assay: Forskolin-induced cAMP accumulation assay, DOR antagonist; settings: for DOR Antagonist %Imax ± SEM: Imax normalized to naltrexone
rodent = tested on: rodent; parameters: method as in PMID 17625813; settings: rodent antinociceptive assays; cited from earlier work
[6] = normalized to the forskolin control

T2 sequence (P35372 whole entry, the tested form may be a part): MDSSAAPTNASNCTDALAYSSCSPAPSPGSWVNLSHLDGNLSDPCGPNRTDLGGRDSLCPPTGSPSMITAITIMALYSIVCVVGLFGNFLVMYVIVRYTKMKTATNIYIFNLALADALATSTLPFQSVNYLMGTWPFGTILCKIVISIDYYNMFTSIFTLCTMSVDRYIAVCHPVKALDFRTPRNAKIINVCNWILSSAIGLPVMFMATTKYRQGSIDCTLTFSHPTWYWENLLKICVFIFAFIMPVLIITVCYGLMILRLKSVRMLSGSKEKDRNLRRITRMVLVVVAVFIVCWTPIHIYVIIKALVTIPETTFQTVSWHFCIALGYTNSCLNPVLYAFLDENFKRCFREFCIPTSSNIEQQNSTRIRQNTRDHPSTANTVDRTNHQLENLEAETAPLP
T1 sequence (P41143 whole entry): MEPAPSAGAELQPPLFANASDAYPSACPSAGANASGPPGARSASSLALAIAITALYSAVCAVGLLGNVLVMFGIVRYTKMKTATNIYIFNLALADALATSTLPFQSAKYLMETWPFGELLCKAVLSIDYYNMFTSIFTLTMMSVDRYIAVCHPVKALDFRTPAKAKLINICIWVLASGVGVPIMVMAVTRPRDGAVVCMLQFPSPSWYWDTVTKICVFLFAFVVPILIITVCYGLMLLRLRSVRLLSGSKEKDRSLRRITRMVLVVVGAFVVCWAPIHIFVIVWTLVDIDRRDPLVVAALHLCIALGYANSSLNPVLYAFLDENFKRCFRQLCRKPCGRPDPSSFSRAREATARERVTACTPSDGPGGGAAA

Row | SMILES | antinociceptive effects (tail withdrawal latency) [1] | EC50 [2] [nM] | DOR Agonist %Emax ± SEM ([2]; cAMP assay, normalized to the forskolin control) [%] | Emax [2, 6] [%] | EC50 [3] [nM] | Emax [3] [%] | respiratory depressant effects (ventilatory ratio: minute volumes in 5% CO2 vs room air) [4] | ventilatory ratio reached with increasing dose ([4]; ratio of minute volumes in 5% CO2 and room air) | Bias Factor [3] | IC50 [5] [nM] | DOR Antagonist %Imax ± SEM ([5]; cAMP assay) [%] | DOR Antagonist IC50 ± SEM (nM) ([5]; cAMP assay, versus EC50 of SNC80) | DOR Agonist EC50 ± SEM (nM) ([2]; inhibition of forskolin-induced cAMP accumulation, CHO-K1 cells) | times more potent than morphine (rodent) [times]
1 | CN1CC[C@]23c4c5ccc(O)c4O[C@H]2[C@@H](O)C=C[C@H]3[C@H]1C5 [Morphine, reference compound] | significantly increased tail withdrawal latency |  |  |  |  |  |  |  |  |  |  |  |  | 
2 | OCC[C@H]1[C@@H]2CCC[C@@]1(c1cccc(O)c1)CCN2CCc1ccccc1 [Compound 21, 3-((1S,5R,9R)-9-(2-Hydroxyethyl)-2-phenethyl-2-azabicyclo[3.3.1]nonan-5-yl)phenol] | significantly increased tail withdrawal latency; also recorded: full antinociceptive effects in three of four subjects | 13 ± 3 | 39 ± 3 | 38 | > 50000 | 0 | reduced the ability of 5% CO2 to stimulate increases in ventilation | above 2 |  |  |  |  |  | 
3 | OC[C@H]1[C@H]2CCC[C@]1(c1cccc(O)c1)CCN2CCc1ccccc1 [Compound 11, 3-((1R,5S,9R)-9-(Hydroxymethyl)-2-phenethyl-2-azabicyclo[3.3.1]nonan-5-yl)phenol] |  | 8.5 ± 3.5 |  | 35 | 187 | 2.7 |  |  | 13.4 |  |  |  |  | 
4 | COC[C@H]1[C@H]2CCC[C@]1(c1cccc(O)c1)CCN2CCc1ccccc1 [Compound 41, 3-((1R,5S,9R)-9-(Methoxymethyl)-2-phenethyl-2-azabicyclo[3.3.1]nonan-5-yl)phenol] |  | 2.4 ± 1.6 |  | 20 | 29 | 2.8 |  |  | 6.4 | 54 ± 14 | 80 ± 8 |  |  | 
5 | OCCC[C@H]1[C@H]2CCC[C@]1(c1cccc(O)c1)CCN2CCc1ccccc1 [Compound 34, 3-((1R,5S,9R)-9-(3-Hydroxypropyl)-2-phenethyl-2-azabicyclo[3.3.1]nonan-5-yl)phenol] |  | > 10000 |  |  | 34 | 3.1 |  |  | 14.0 | 41 ± 5 | 111 ± 4 | weak DOR antagonist activity | no DOR agonist activity | 
6 | Oc1cccc([C@]23CCC[C@H]([C@H]2O)N(CCc2ccccc2)CC3)c1 [Compound 2] |  |  |  |  |  |  |  |  |  |  |  |  |  | ~500
7 | OC[C@H]1[C@@H]2CCC[C@@]1(c1cccc(O)c1)CCN2CCc1ccccc1 [Compound 15, 3-((1S,5R,9R)-9-(Hydroxymethyl)-2-phenethyl-2-azabicyclo[3.3.1]nonan-5-yl)phenol] | did not significantly increase tail withdrawal latency | 0.6 ± 0.3 |  | 17 | > 50000 | 0 | limited respiratory depressant effects |  |  | 336 ± 139 | 109 ± 8 |  |  | 
8 | OCCC[C@H]1[C@@H]2CCC[C@@]1(c1cccc(O)c1)CCN2CCc1ccccc1 [Compound 36] | did not significantly increase tail withdrawal latency | 102 ± 16 |  | 41 | > 50000 | 0 | limited respiratory depressant effects |  |  |  |  |  |  | 
